Patent publication US12221406B2, “Compounds as NLRP3 inflammasome inhibitors and compositions and uses thereof” (VIRGINIA COMMONWEALTH UNIVERSITY, priority 2019, dated 2025)

How the values were obtained:
[1] = In vivo BBB penetration in mice, plasma and brain by LC-MS/MS; parameters: species or system C57BL/6 mice; settings: PO 20 mg/kg
Protocol: (§1) […]. […] […]. Plasma samples ([…]) were collected at 0.08, 0.17, 0.25, 0.5, 0.75, 1.0, 2.0, 4.0, 8.0, 12.0, and 24.0 h time points through orbital vein and were stored in −80° C. freezer for later analysis.
(§2) Samples were mixed by vortexing for 30 seconds. […] […]. […] […].

NLRC4 inflammasome = biological target: T1, NLRC4 inflammasome (Mus musculus, UniProt Q3UP24); test: NLRC4 inflammasome assay in J774A.1 cells (LPS/flagellin, IL-1β ELISA); format: cell-based, murine; settings: compound 10 μM
T1 construct: endogenous in cells; host or cells: J774A.1 murine macrophage cell line (LPS + transfected flagellin)
Protocol: (§3) J774A.1 cells were plated into a 96-well plate. […] Cells were treated with LPS (1 μg/mL) and test compounds for 1 h. Flagellin or poly-deoxyadenylic-deoxythymidylic acid sodium salt (Poly(dA:dT)) was used to induce the formation of the NLRC4 and the AIM2 inflammasomes.

AIM2 inflammasome = biological target: T2, AIM2 inflammasome (Mus musculus, UniProt Q91VJ1); test: AIM2 inflammasome assay in J774A.1 cells (LPS/Poly(dA:dT), IL-1β ELISA); format: cell-based, murine; settings: compound 10 μM
T2 construct: endogenous in cells; host or cells: J774A.1 murine macrophage cell line (LPS + Poly(dA:dT))
T2 sequence (Q91VJ1 1-354): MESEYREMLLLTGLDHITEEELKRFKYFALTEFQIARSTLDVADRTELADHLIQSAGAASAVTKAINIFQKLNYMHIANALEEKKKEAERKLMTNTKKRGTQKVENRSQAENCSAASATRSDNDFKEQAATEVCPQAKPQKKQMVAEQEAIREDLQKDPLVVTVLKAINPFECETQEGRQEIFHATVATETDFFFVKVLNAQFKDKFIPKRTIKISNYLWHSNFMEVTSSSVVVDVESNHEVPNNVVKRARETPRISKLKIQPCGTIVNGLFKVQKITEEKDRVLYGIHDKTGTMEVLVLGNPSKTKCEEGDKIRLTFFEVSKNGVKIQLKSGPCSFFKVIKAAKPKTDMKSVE
Protocol: as §3

[2] = PK study in rats, IV and PO, plasma by LC-MS/MS; format: in vivo, Sprague-Dawley rats
Protocol: as §1, §2

hCMEC/D3 cells = test: Cytotoxicity on hCMEC/D3 cells (Live/Dead kit); format: cell-based, human; settings: 20 μM, 2 h

C#CCNS(=O)(=O)c1ccc(CCN(Cc2cc(Cl)ccc2OCCC)C(=O)Cc2ccsc2)cc1 [SZ-N3I-45, N-(5-chloro-2-propoxybenzyl)-N-(4-(N-(prop-2-yn-1-yl)sulfamoyl)phenethyl)-2-(thio-phen-3-yl)acetamide]
plasma concentration ([1]; 0.5 hours): 277.33 ± 182.15 ng/mL
brain concentration after approximate conversion ([1]; 4 h): around 12 nM
effect on IL-1β production by NLRC4 inflammasome (NLRC4 inflammasome): did not significantly interfere
effect on IL-1β production by AIM2 inflammasome (AIM2 inflammasome): did not significantly interfere
oral bioavailability (Foral) ([2]; 20 mg/kg PO vs IV): 10%
steady-state volume of distribution (Vdss) ([2]; IV 20 mg/kg): 8.5 L/kg
terminal plasma half-life (t½) ([2]; IV 20 mg/kg): 6.6 h
total clearance (CLtot) ([2]; IV 20 mg/kg): 41 mL/min/kg
cmax ([2]; PO 20 mg/kg): 73 ng/mL
tmax ([2]; PO 20 mg/kg): 12 h
cytotoxicity on hCMEC/D3 cells (hCMEC/D3 cells): did not show significant toxic effects
